From US20170121344A1 (Siga Technologies, Inc., priority 2009, published 2017)
pEC50: −log10 of the molar value. Read-outs that look alike come from different tables or passages of the source.

Test system: Dengue-2 (Strain New Guinea C)
Assay: Viral yield assay against Dengue-2 in Vero cells
Type: cell-based, Dengue virus
Conditions: Dengue virus; for EC50: DENV2, viral yield assay, MOI 0.1, 48 hours post infection, read-out: Activity (EC50 in μM) DENV-2; for pEC50: read-out: Activity (EC50 class) against Dengue-2 Virus in Vero cells
Outline: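 Vero cells were infected with dengue virus at an MOI of 0.1, treated with compound or DMSO vehicle, and kept at 37° C. Supernatant virus was harvested 48 hours post infection and titered on Vero cells, with EC50 derived from yield reduction.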

[1] = Vero cells, MOI 0.1, harvested 48 hours post infection

Work on `COc1cccc(-c2ccc3c(N)c(C(=O)Nc4cc(F)ccc4F)sc3n2)c1` [Compound 516, 3-amino-N-(2,5-difluorophenyl)-6-(3-methoxyphenyl)thieno[2,3-b]pyridine-2-carboxamide] yielded an EC50 (Vero cells) of less than 5 µM.
With `COc1ccccc1-c1cc(-c2ccccc2)c2c(N)c(C(=O)NC3CC3)sc2n1` [Compound 67, 3-Amino-6-(2-methoxy-phenyl)-4-phenyl-thieno[2,3-b]pyridine-2-carboxylic acid cyclopropylamide] the pEC50 [1] was 4.60 to 5.30.
With `CC1(C)Cc2c(c(N3CCOCC3)nc3sc(C(=O)N4CCOCC4)c(N)c23)CO1` [Compound 234, (1-Amino-8,8-dimethyl-5-morpholin-4-yl-8,9-dihydro-6H-7-oxa-3-thia-4-aza-cyclopenta[a]naphthalen-2-yl)-morpholin-4-yl-methanone] the pEC50 [1] was less than 4.60.
Compound `COCc1cc(C)nc2sc(C(=O)NCc3ccco3)c(N)c12` [Compound 209, 3-Amino-4-methoxymethyl-6-methyl-thieno[2,3-b]pyridine-2-carboxylic acid (furan-2-ylmethyl)-amide] has a pEC50 [1] of less than 4.60.
`Cc1cc(F)ccc1NC(=O)c1sc2nc3c(cc2c1N)CN(C)CC3` [Compound 265, 3-Amino-6-methyl-5,6,7,8-tetrahydro-thieno[2,3-b][1,6]naphthyridine-2-carboxylic acid (4-fluoro-2-methyl-phenyl)-amide] showed a pEC50 [1] of less than 4.60.
Work on `CN1CCc2nc3sc(C(=O)Nc4ccc5c(c4)OCO5)c(N)c3cc2C1` [Compound 33, 3-Amino-6-methyl-5,6,7,8-tetrahydro-thieno[2,3-b][1,6]naphthyridine-2-carboxylic acid benzo[1,3]dioxol-5-ylamide] yielded a pEC50 [1] greater than 5.30.
`CN1CCc2nc3sc(C(=O)Nc4ccc(C(C)(C)C)cc4)c(N)c3cc2C1` [Compound 35, 3-Amino-6-methyl-5,6,7,8-tetrahydro-thieno[2,3-b][1,6]naphthyridine-2-carboxylic acid (4-tert-butyl-phenyl)-amide] gave a pEC50 [1] greater than 5.30.
`Nc1c(C(=O)Nc2nnc(-c3ccccc3)s2)sc2nc3c(cc12)CCCC3` [Compound 53, 3-Amino-5,6,7,8-tetrahydro-thieno[2,3-b]quinoline-2-carboxylic acid (5-phenyl-[1,3,4]thiadiazol-2-yl)-amide] gave a pEC50 [1] greater than 5.30.
With `COc1cccc(-c2ccc3c(N)c(C(=O)Nc4ccc(C)cc4)sc3n2)c1` [Compound 553, 3-amino-6-(3-methoxyphenyl)-N-(p-tolyl)thieno[2,3-b]pyridine-2-carboxamide] the EC50 (Vero cells) was less than 5 µM.
For `CCCSc1nc2ccc(NC(=O)c3sc4nc(-c5cccc(OC)c5)ccc4c3N)cc2s1` [Compound 568, 3-amino-6-(3-methoxyphenyl)-N-(2-propylsulfanyl-1,3-benzothiazol-6-yl) thieno[2,3-b]pyridine-2-carboxamide], the EC50 (Vero cells) was less than 5 µM.
For `Cc1ccc(-c2c3c(nc4sc(C(N)=O)c(N)c24)CCCCC3)cc1` [Compound 220, 3-Amino-4-p-tolyl-6,7,8,9-tetrahydro-5H-1-thia-10-aza-cyclohepta[f]indene-2-carboxylic acid amide], the pEC50 [1] was less than 4.60.
With `COc1ccc(NC(=O)c2sc3nc4c(cc3c2N)CCCCC4)cc1` [Compound 118, 3-Amino-6,7,8,9-tetrahydro-5H-1-thia-10-aza-cyclohepta[f]indene-2-carboxylic acid (4-methoxy-phenyl)-amide] the pEC50 [1] was less than 4.60.
`Cc1cc(NC(=O)c2sc3nc4c(cc3c2N)CN(C)CC4)on1` [Compound 264, 3-Amino-6-methyl-5,6,7,8-tetrahydro-thieno[2,3-b][1,6]naphthyridine-2-carboxylic acid (3-methyl-isoxazol-5-yl)-amide] showed a pEC50 [1] of less than 4.60.
With `Nc1c(C(=O)Nc2cccc(Br)c2)sc2ncccc12` [Compound 421, 3-amino-N-(3-bromophenyl)thieno[2,3-b] pyridine-2-carboxamide] the EC50 (Vero cells) was 5 to 25 µM.
With `Cc1cc(F)ccc1NC(=O)c1sc2nc(-c3ccc4c(c3)OCO4)ccc2c1N` [Compound 593, 3-amino-6-(1,3-benzodioxol-5-yl)-N-(4-fluoro-2-methyl-phenyl)thieno[2,3-b] pyridine-2-carboxamide] the EC50 (Vero cells) was less than 5 µM.
In the case of `COc1ccc(-c2ccc3c(N)c(C(=O)NC(C)C)sc3n2)cc1` [Compound 101, 3-Amino-6-(4-methoxy-phenyl)-thieno[2,3-b]pyridine-2-carboxylic acid isopropylamide], the pEC50 [1] was 4.60 to 5.30.
`CC1=NN(C(=O)c2sc3nc(-c4cccs4)cc(C(F)(F)F)c3c2C)C(O)(C(F)(F)F)C1` (centres unmarked) [Compound 387, [5-hydroxy-3-methyl-5-(trifluoromethyl)-4H-pyrazol-1-yl]-[3-methyl-6-(2-thienyl)-4-(trifluoromethyl)thieno[2,3-b]pyridin-2-yl]methanone] showed an EC50 (Vero cells) of 5 to 25 µM.
In the case of `Cc1ccc2c(n1)sc1c(=O)n(-c3cccc(Br)c3)nnc12` [Compound 479, 3-(3-bromophenyl)-7-methylpyrido[3′,2′:4,5]thieno[3,2-d] [1,2,3]triazin-4(3H)-one], the EC50 (Vero cells) was less than 5 µM.
Compound `Cc1cc(C(F)(F)F)c2c(N)c(C(=O)Nc3ccc(I)cc3C)sc2n1` [Compound 123, 3-Amino-6-methyl-4-trifluoromethyl-thieno[2,3-b]pyridine-2-carboxylic acid (4-iodo-2-methyl-phenyl)-amide] has a pEC50 [1] of less than 4.60.
For `CC1(C)Cc2c(c(N3CCOCC3)nc3sc(C(N)=O)c(N)c23)CO1` [Compound 169, 1-Amino-8,8-dimethyl-5-morpholin-4-yl-8,9-dihydro-6H-7-oxa-3-thia-4-aza-cyclopenta[a]naphthalene-2-carboxylic acid amide], the pEC50 (Vero, 48 h) was less than 4.60.
`COCc1cc(C)nc2sc(C(=O)Nc3ccccc3C)c(N)c12` [Compound 210, 3-Amino-4-methoxymethyl-6-methyl-thieno[2,3-b]pyridine-2-carboxylic acid o-tolylamide] gave a pEC50 (Vero, 48 h) of less than 4.60.
`CCOc1ccccc1NC(=O)c1sc2nc(-c3ccc(OC)c(OC)c3)ccc2c1N` [Compound 509, 3-amino-6-(3,4-dimethoxyphenyl)-N-(2-ethoxyphenyl)thieno[2,3-b]pyridine-2-carboxamide] was tested, and the EC50 (Vero cells) was less than 5 µM.
`COCc1cc(C)nc2sc3c(=O)n(-c4cccc5ccccc45)nnc3c12` [Compound 150, 9-Methoxymethyl-7-methyl-3-naphthalen-1-yl-3H-pyrido[3′,2′:4,5]thieno[3,2-d][1,2,3]triazin-4-one] showed a pEC50 (Vero, 48 h) of less than 4.60.
`Cc1cc(C)c2c(N)c(C(=O)Nc3ccc(S(N)(=O)=O)cc3)sc2n1` [Compound 183, 3-Amino-4,6-dimethyl-thieno[2,3-b]pyridine-2-carboxylic acid (4-sulfamoyl-phenyl)-amide] showed a pEC50 [1] of less than 4.60.
Work on `CN1CCc2nc3sc(C(=O)Nc4ccc(Cl)cc4)c(N)c3c(-c3ccccc3)c2C1` [Compound 64, 3-Amino-6-methyl-4-phenyl-5,6,7,8-tetrahydro-thieno[2,3-b][1,6]naphthyridine-2-carboxylic acid (4-chloro-phenyl)-amide] yielded a pEC50 [1] greater than 5.30.
`CN1CCc2nc3sc(C(=O)Nc4ccccc4)c(N)c3c(-c3cccs3)c2C1` [Compound 34, 3-Amino-6-methyl-4-thiophen-2-yl-5,6,7,8-tetrahydro-thieno[2,3-b][1,6]naphthyridine-2-carboxylic acid phenylamide] showed a pEC50 [1] greater than 5.30.
`Nc1c(C(=O)Nc2ccc3ccccc3c2)sc2nc3c(cc12)CCCC3` [Compound 87, 3-Amino-5,6,7,8-tetrahydro-thieno[2,3-b]quinoline-2-carboxylic acid naphthalen-2-ylamide] was tested, and the pEC50 [1] was 4.60 to 5.30.
Compound `COc1ccc(C(F)(F)F)cc1NC(=O)c1sc2nc(-c3cccs3)ccc2c1N` [Compound 442, 3-amino-N-[2-methoxy-5-(trifluoromethyl)phenyl]-6-(2-thienyl) thieno[2,3-b]pyridine-2-carboxamide] has an EC50 (Vero cells) of less than 5 µM.
Work on `CCc1nnc(NC(=O)c2sc3nc(-c4cccs4)cc(C(F)(F)F)c3c2N)s1` [Compound 90, 3-Amino-6-thiophen-2-yl-4-trifluoromethyl-thieno[2,3-b]pyridine-2-carboxylic acid (5-ethyl-[1,3,4]thiadiazol-2-yl)-amide] yielded a pEC50 (Vero, 48 h) of 4.60 to 5.30.
In the case of `CCc1nnc(NC(=O)c2sc3nc4c(cc3c2N)CN(C)CC4)s1` [Compound 268, 3-Amino-6-methyl-5,6,7,8-tetrahydro-thieno[2,3-b][1,6]naphthyridine-2-carboxylic acid (5-ethyl-[1,3,4]thiadiazol-2-yl)-amide], the pEC50 [1] was less than 4.60.
With `CC(=O)Nc1nc2sc(C(=O)Nc3ccc(Br)cc3)c(N)c2c(-c2ccco2)c1C#N` [Compound 324, 6-acetamido-3-amino-N-(4-bromophenyl)-5-cyano-4-(2-furyl)thieno[2,3-b]pyridine-2-carboxamide] the EC50 (Vero cells) was less than 5 µM.
Work on `COc1cccc(-c2ccc3c(N)c(C(=O)Nc4ccc5c(c4)OCCO5)sc3n2)c1` [Compound 499, 3-amino-N-(2,3-dihydor-1,4-benzodioxin-6-yl)-6-(3-methoxyphenyl)thieno[2,3-b] pyridine-2-carboxamide] yielded an EC50 (Vero cells) of less than 5 µM.
With `CC(=O)N1CCc2nc3sc(C(=O)Nc4ccc(C(C)(C)C)cc4)c(N)c3c(C(F)(F)F)c2C1` [Compound 56, 6-Acetyl-3-amino-4-trifluoromethyl-5,6,7,8-tetrahydro-thieno[2,3-b][1,6]naphthyridine-2-carboxylic acid (4-tert-butyl-phenyl)-amide] the pEC50 [1] was greater than 5.30.
For `COc1ccc(-c2ccc3c(N)c(C(=O)Nc4cccc(C)c4)sc3n2)cc1OC` [Compound 633, 3-amino-6-(3,4-dimethoxyphenyl)-N-(m-tolyl)thieno[2,3-b]pyridine-2-carboxamide], the EC50 (Vero cells) was less than 5 µM.
`Cc1ccc(NC(=O)c2sc3nc4c(cc3c2N)CN(C)CC4)c(F)c1` [Compound 104, 3-Amino-6-methyl-5,6,7,8-tetrahydro-thieno[2,3-b][1,6]naphthyridine-2-carboxylic acid (2-fluoro-4-methyl-phenyl)-amide] gave a pEC50 [1] of 4.60 to 5.30.
